Source: patent US20230031024A1, “SUBSTITUTED PYRIMIDINIUM COMPOUNDS FOR COMBATING ANIMAL PESTS” (BASF SE, priority 2018, published 2023)

Columns and labels:
Format in all cases: in vivo
Bemisia argentifolii = test: Silverleaf whitefly (Bemisia argentifolii) adults, sprayed cotton plant test; details: 72 h, 3 days after treatment, read-out: mortality in comparison with untreated controls
Text: B.3 Silverleaf whitefly (Bemisia argentifolii) (adults)
(§1) The active compounds were formulated in cyclohexanone as a 10,000 ppm solution supplied in tubes. The tubes were inserted into an automated electrostatic sprayer equipped with an atomizing nozzle and they served as stock solutions for which lower dilutions were made in 50% acetone:50% water (v/v). A non-ionic surfactant (Kinetic®) was included in the solution at a volume of 0.01% (v/v).
Cotton plants at the cotyledon stage (one plant per pot) were sprayed by an automated electrostatic plant sprayer equipped with an atomizing spray nozzle. The plants were dried in the sprayer fume hood and then removed from the sprayer. Each pot was placed into a plastic cup and about 10 to 12 whitefly adults (approximately 3-5 days old) were introduced. The insects were collected using an aspirator and a nontoxic Tygon® tubing connected to a barrier pipette tip. The tip, containing the collected insects, was then gently inserted into the soil containing the treated plant, allowing insects to crawl out of the tip to reach the foliage for feeding. Cups were covered with a reusable screened lid. […] Mortality was assessed 3 days after treatment, compared to untreated control plants.

Anthonomus grandis = test: Boll weevil (Anthonomus grandis) microtiter plate diet test, egg and larval mortality; details: 120 h, egg and larval mortality after 5 days, read-out: mortality in comparison with untreated controls
Method: B.1. Boll weevil (Anthonomus grandis)
For evaluating control of boll weevil (Anthonomus grandis) the test unit consisted of 96-wellmicrotiter plates containing an insect diet and 5-10 A. grandis eggs.
The compounds were formulated using a solution containing 75% v/v water and 25% v/v DMSO. Different concentrations of formulated compounds were sprayed onto the insect diet at 5 μl, using a custom-built micro atomizer, at two replications.
After application, microtiter plates were incubated at about 25+1° C. and about 75+5% relative humidity for 5 days. Egg and larval mortality was then visually assessed.

Spodoptera eridania = test: Southern armyworm (Spodoptera eridania) 2nd instar larvae, sprayed lima bean plant test; details: 96 h, 4 days after treatment, read-out: mortality in comparison with untreated controls
Method: B.4. Southern armyworm (Spodoptera eridania), 2nd instar larvae
as §1, with “nonionic” for “non-ionic”
Lima bean plants (variety Sieva) were grown 2 plants to a pot and selected for treatment at the 1st true leaf stage. Test solutions were sprayed onto the foliage by an automated electrostatic plant sprayer equipped with an atomizing spray nozzle. The plants were dried in the sprayer fume hood and then removed from the sprayer. Each pot was placed into perforated plastic bags with a zip closure. About 10 to 11 armyworm larvae were placed into the bag and the bags zipped closed. Test plants were maintained in a growth room at about 25° C. and about 20-40% relative humidity for 4 days, avoiding direct exposure to fluorescent light (24 hour photoperiod) to prevent trapping of heat inside the bags. Mortality and reduced feeding were assessed 4 days after treatment, compared to untreated control plants.

Plutella xylostella = test: Diamond back moth (Plutella xylostella) cabbage leaf dip test, larval mortality; details: foliar, 3rd instar larvae, 72 hours after treatment, read-out: mortality in comparison with untreated controls
Method: B.2. Diamond back moth (Plutella xylostella)
The active compound is dissolved at the desired concentration in a mixture of 1:1 (vol:vol) distilled water: acetone. Surfactant (Alkamuls® EL 620) is added at a rate of 0.1% (vol/vol). The test solution is prepared at the day of use.
Leaves of cabbage were dipped in test solution and air-dried. Treated leaves were placed in petri dish enlined with moist filter paper and inoculated with ten 3rd instar larvae. Mortality was recorded 72 hours after treatment. Feeding damages were also recorded using a scale of 0-100%.

CO/N=C(\C)CC1CSc2n(C)c(=O)c(-c3ccccc3)c([O-])[n+]21 (stereo not shown) [C-1, 3-[(2E)-2-methoxyiminopropyl]-8-methyl-7-oxo-6-phenyl-2,3-dihydrothiazolo[3,2-a]pyrimidin-4-ium-5-olate]
> 75%: mortality at 500 ppm (Bemisia argentifolii) | mortality at 800 ppm (Anthonomus grandis) | mortality at 500 ppm (Spodoptera eridania) | mortality at 500 ppm (Plutella xylostella)
